The numbers were not newly measured in patent US20080131879A1, “Detection of Subjects at Risk For Chd By a Genotype Evaluation Associated With Serum Plant Sterols Enabling Individualized (Drug) Treatment on Demand” (University Van Maastricht, priority 2004, published 2008), which cites them from elsewhere.

For the data set the following is noted: intestinal absorption from diet.

Turning to `CC(C)[C@H](C)CC[C@@H](C)[C@H]1CC[C@H]2[C@@H]3CC=C4C[C@@H](O)CC[C@]4(C)[C@H]3CC[C@]12C` [campesterol], the Absorption is given as 1.89%. Regarding `CC[C@H](CC[C@@H](C)[C@H]1CC[C@H]2[C@@H]3CC=C4C[C@@H](O)CC[C@]4(C)[C@H]3CC[C@]12C)C(C)C` [sitosterol], the Absorption was 0.51%.
